Assay results reported in ChEMBL document CHEMBL4828751, “Discovery of novel tubulin/HDAC dual-targeting inhibitors with strong antitumor and antiangiogenic potency” (Eur J Med Chem, 2021).
Calls of active or inactive are those of the source. The calls are words filed in the database; no cut-off is given here.

Assays:
Tubulin (Homo sapiens) [1] = biological target: T1, Tubulin (Homo sapiens) (UniProt P68371+Q9H4B7+P0DPH7+P68366+Q13509+Q71U36+P04350+Q3ZCM7+P07437+P68363+Q9BQE3+Q6PEY2+Q13885+Q9BVA1+Q9BUF5); test: Inhibition of tubulin polymerization in human MGC-803 cells assessed as change in shape of nucleus at 2 to 7.5 nM measured after 48 hrs by Hoechst staining based confocal microscopy analysis; format: cell-based; conditions: dose 2-7.5 nM
MGC-803 [2] = test: Induction of apoptosis in human MGC-803 cells assessed as early apoptotic cells at 7.5 nM measured after 48 hrs by Annexin V-APC/PI double staining based flow cytometry assay (reference value: 1.31 %); format: functional, cell-based
MGC-803 [3] = test: Down regulation of Pcdc2 expression in human MGC-803 cells at 7.5 to 30 nM measured after 24 hrs by Western blot analysis; format: functional, cell-based; conditions: dose 7.5-30 nM
MGC-803 [4] = test: Induction of cell cycle arrest in human MGC-803 cells assessed as accumulation at G1 phase at 30 nM incubated for 24 hrs by propidium iodide staining based flow cytometry (reference value: 45.67 %); format: functional
HUVEC = test: Antiinvasive activity in HUVEC cells assessed as decrease in cell invasion at 5 to 20 nM measured after 48 hrs by transwell assay; format: functional, cell-based; conditions: Homo sapiens, dose 5-20 nM
U-937 = test: Antiproliferative activity against human U-937 cells assessed as cell growth inhibition after 72 hrs by CCK8 assay; format: functional, cell-based; conditions: U-937, 72 h
MGC-803 [5] = test: Induction of mitochondrial membrane potential loss in human MGC-803 cells at 15 nM after 48 hrs by JC-1 staining based flow cytometric analysis (reference value: 86 %); format: functional
HepG2 = test: Antiproliferative activity against human HepG2 cells assessed as cell growth inhibition after 72 hrs by SRB assay; format: functional, cell-based; conditions: HepG2, 72 h
MGC-803 [6] = test: Induction of cell cycle arrest in human MGC-803 cells assessed as accumulation at G2/M phase at 15 nM incubated for 24 hrs by propidium iodide staining based flow cytometry (reference value: 37.03 %); format: functional
MGC-803 [7] = test: Induction of apoptosis in human MGC-803 cells assessed as increase in Caspase-9 expression incubated for 24 hrs by Western blot analysis; format: functional, cell-based; conditions: dose 7.5-30 nM
Tubulin (Homo sapiens) [8] = biological target: T1, Tubulin (Homo sapiens); test: Inhibition of tubulin polymerization in human MGC-803 cells; format: cell-based
MGC-803 [9] = test: Induction of apoptosis in human MGC-803 cells assessed as viable cells at 30 nM measured after 48 hrs by Annexin V-APC/PI double staining based flow cytometry assay (reference value: 92.1 %); format: functional, cell-based
MGC-803 [10] = test: Induction of apoptosis in human MGC-803 cells assessed as increase in cleaved Caspase-3 expression incubated for 24 hrs by Western blot analysis; format: functional, cell-based; conditions: dose 7.5-30 nM
MGC-803 [11] = test: Induction of cell cycle arrest in human MGC-803 cells assessed as accumulation at G2/M phase incubated for 24 hrs by propidium iodide staining based flow cytometry; format: functional; conditions: dose 7.5-30 nM
MGC-803 [12] = test: Induction of apoptosis in human MGC-803 cells assessed as increase in PARP expression incubated for 24 hrs by Western blot analysis; format: functional, cell-based; conditions: dose 7.5-30 nM
HEK-293T = test: Cytotoxicity against human HEK293T cells assessed as reduction in cell viability; format: cell-based
MGC-803 [13] = test: Induction of cell cycle arrest in human MGC-803 cells assessed as accumulation at G1 phase at 15 nM incubated for 24 hrs by propidium iodide staining based flow cytometry (reference value: 45.67 %); format: functional
MGC-803 [14] = test: Induction of apoptosis in human MGC-803 cells assessed as increase in cleaved PARP expression incubated for 24 hrs by Western blot analysis; format: functional, cell-based
MCF7 = test: Antiproliferative activity against human MCF7 cells assessed as cell growth inhibition after 72 hrs by SRB assay; format: functional, cell-based; conditions: MCF7, 72 h
MGC-803 [15] = test: Induction of ROS generation in human MGC-803 cells assessed as intracellular ROS level at 15 nM incubated for 24 hrs by DCFH-DA staining based flow cytometric analysis (reference value: 2.72 %); format: functional
MGC-803 [16] = test: Induction of G2/M phase cell cycle arrest in human MGC-803 cells assessed as upregulation of cyclinB1 protein expression at 7.5 to 30 nM measured after 48 hrs by western blot analysis; format: functional, cell-based; conditions: dose 7.5-30 nM
MGC-803 [17] = test: Induction of mitochondrial membrane potential loss in human MGC-803 cells after 48 hrs by JC-1 staining based flow cytometric analysis; format: functional, cell-based; conditions: dose 7.5-30 nM
MGC-803 [18] = test: Induction of cell cycle arrest in human MGC-803 cells assessed as accumulation at S phase at 30 nM incubated for 24 hrs by propidium iodide staining based flow cytometry (reference value: 17.3 %); format: functional
MGC-803 [19] = test: Inhibition of cell migration in human MGC-803 cells assessed as decrease in wound healing rate at 7.5 to 30 nM measured after 48 hrs by wound healing assay; format: functional, cell-based; conditions: dose 7.5-30 nM
MGC-803 [20] = test: Induction of ROS generation in human MGC-803 cells assessed as intracellular ROS level at 7.5 nM incubated for 24 hrs by DCFH-DA staining based flow cytometric analysis (reference value: 2.72 %); format: functional
MGC-803 [21] = test: Induction of apoptosis in human MGC-803 cells assessed as increase in cleaved Caspase-7 expression incubated for 24 hrs by Western blot analysis; format: functional, cell-based; conditions: dose 7.5-30 nM
A549 = test: Antiproliferative activity against human A549 cells assessed as cell growth inhibition after 72 hrs by SRB assay; format: functional, cell-based; conditions: A549, 72 h
MGC-803 [22] = test: Induction of cell cycle arrest in human MGC-803 cells assessed as accumulation at S phase at 7.5 nM incubated for 24 hrs by propidium iodide staining based flow cytometry (reference value: 17.3 %); format: functional
MGC-803 [23] = test: Induction of apoptosis in human MGC-803 cells assessed as necrotic cells at 15 nM measured after 48 hrs by Annexin V-APC/PI double staining based flow cytometry assay (reference value: 0.57 %); format: functional, cell-based
MGC-803 [24] = test: Induction of apoptosis in human MGC-803 cells assessed as increase in Caspase-7 expression incubated for 24 hrs by Western blot analysis; format: functional, cell-based; conditions: dose 7.5-30 nM
MGC-803 [25] = test: Induction of apoptosis in human MGC-803 cells assessed as increase in Caspase-3 expression incubated for 24 hrs by Western blot analysis; format: functional, cell-based; conditions: dose 7.5-30 nM
MGC-803 [26] = test: Induction of apoptosis in human MGC-803 cells assessed as necrotic cells at 7.5 nM measured after 48 hrs by Annexin V-APC/PI double staining based flow cytometry assay (reference value: 0.57 %); format: functional, cell-based
MGC-803 [27] = test: Induction of apoptosis in human MGC-803 cells assessed as early apoptotic cells at 15 nM measured after 48 hrs by Annexin V-APC/PI double staining based flow cytometry assay (reference value: 1.31 %); format: functional, cell-based
MGC-803 [28] = test: Down regulation of p21 expression in human MGC-803 cells at 7.5 to 30 nM measured after 24 hrs by Western blot analysis; format: functional, cell-based; conditions: dose 7.5-30 nM
L02 = test: Cytotoxicity against human L02 cells assessed as reduction in cell viability; format: cell-based
Tubulin (Homo sapiens) [29] = biological target: T1, Tubulin (Homo sapiens); test: Inhibition of tubulin polymerization in human MGC-803 cells assessed as blockage of spindle formation at 30 nM measured after 48 hrs by Hoechst staining based confocal microscopy analysis; format: cell-based
MGC-803 [30] = test: Induction of apoptosis in human MGC-803 cells assessed as increase in cleaved Caspase-9 expression incubated for 24 hrs by Western blot analysis; format: functional, cell-based; conditions: dose 7.5-30 nM

With `COc1ccc(/C=C\c2cc(OC)c(OC)c(OC)c2)cc1/C=C/C(=O)Nc1ccccc1N` the inhibition (Tubulin (Homo sapiens) [1]) was “Active”, the Activity (MGC-803 [2]) was “Active” and the Activity (MGC-803 [3]) was “Active”. The Activity (MGC-803 [4]) was 2.21%, the inhibition (HUVEC) was “Active” and the IC50 (U-937) was 305 nM. The Activity (MGC-803 [5]) was 63.6%, the IC50 (HepG2) was 26 nM and the Activity (MGC-803 [6]) was “Dose-Dependent Effect”. The Activity (MGC-803 [6]; record 2) was 48.16%, the Activity (MGC-803 [7]) was “Dose-Dependent Effect” and the inhibition (Tubulin (Homo sapiens) [8]) was “Active”. The Activity (MGC-803 [9]) was “Active”, the Activity (MGC-803 [10]) was “Dose-Dependent Effect” and the Activity (MGC-803 [11]) was “Dose-Dependent Effect”. The Activity (MGC-803 [12]) was “Dose-Dependent Effect”, the IC50 (HEK-293T) was 352 nM and the Activity (MGC-803 [13]) was 39.14%. The Activity (MGC-803 [14]) was “Dose-Dependent Effect”, the IC50 (MCF7) was 23 nM and the Activity (MGC-803 [15]) was 26%. For the same compound, the Activity (MGC-803 [16]) was “Active”, the Activity (MGC-803 [17]) was “Dose-Dependent Effect” and the Activity (MGC-803 [18]) was 13.6%. For the same compound, the inhibition (MGC-803 [19]) was “Active”, the Activity (MGC-803 [20]) was 17.4% and the Activity (MGC-803 [21]) was “Dose-Dependent Effect”. For the same compound, the IC50 (A549) was 191 nM, the Activity (MGC-803 [22]) was 12.6% and the Activity (MGC-803 [23]) was “Active”. For the same compound, the Activity (MGC-803 [24]) was “Dose-Dependent Effect”, the Activity (MGC-803 [25]) was “Dose-Dependent Effect” and the Activity (MGC-803 [26]) was “Active”. The Activity (MGC-803 [27]) was “Active”, the Activity (MGC-803 [28]) was “Active” and the IC50 (L02) was 556 nM. The inhibition (Tubulin (Homo sapiens) [29]) was “Active” and the Activity (MGC-803 [30]) was “Dose-Dependent Effect”.
